Results reported in patent US6753323B2, “Topical administration of amifostine and related compounds” (MedImmune Oncology, Inc., priority 1998, dated 2004).

Assays:
[1] = Solubility of WR-1065 salts in various solvents; format: physicochemical; settings: Water
Procedure: As mentioned above, salts of amifostine and related compounds are included within the scope of the invention. […] Several salts of WR-1065 were prepared, and their solubility in various solvents was measured.

hair matrix cells = settings: topical 0.3 mg in 0.2 mL Ringer's solution on depilated mouse skin before fractionated irradiation; cited from earlier work
bacteria, yeast and mold = assay: USP 23 Antimicrobial Preservatives-Effectiveness test, overall; format: cell-based; settings: each of the tested microorganisms, 28 day test
Procedure: WR-1065 was evaluated according to a protocol based on the “Antimicrobial Preservatives-Effectiveness” Test, outlined in the United States Pharmaeopeia, 23rd ed. (1995).
Prior to inoculation of the test article, a 1:10 dilution is prepared in diluent and 1.0 mL is plated. Additional serial dilutions are prepared and plated as necessary. Two separate sets are prepared as above. One set is prepared for bacteria counts, and one set is prepared for yeast/mold counts.
Enumeration of viable bacterial and fungal populations in the inoculated test article is conducted at 7, 14, 21 and 28 days post inoculation. At each time interval, a 1.0 g (or mL) specimen is removed from each inoculated specimen and plate counts are obtained by preparing serial dilutions in 9 mL tubes of diluent and plating aliquots from each dilution. Following incubation, plates are observed and the CFU's are enumerated. The number obtained is multiplied by the dilution factor to give the number of viable organisms per g (or mL) of test article at each time interval. At each time interval, the inoculated product is examined and any changes observed in the appearance of the test article during the challenge period are recorded. […]

Compound | Est. Solubitity HPLC Assay ([1]; as salt) | Est. Solubitity HPLC Assay ([1]; expressed as free base) | protection of hair matrix cells from radiation-induced injury (hair matrix cells) | preservative efficacy according to USP 23 criteria (bacteria, yeast and mold)
Cl.Cl.NCCCNCCS [di-HCl] | 849 mg/mL | 550 mg/mL |  | 
NCCCNCCS [WR-1065, S-2-(3-aminopropylamino) ethanethiol] |  |  | some effectiveness | effective preservative
